Results: US10954260B2, “Cymanquine compounds and derivatives thereof and uses thereof” (UNIVERSITY OF VERMONT AND STATE AGRICULTURAL COLLEGE, priority 2015, dated 2021)
Entries after “also recorded” stand apart in the source; their conditions may differ.

Assays:
autophagy = settings: low pH media, and bulky tumors in vivo; Pellegrini et al.; cited from earlier work
[1] = Cyclic voltammetry, anodic oxidation potentials; assay type: physicochemical; settings: dichloromethane/0.05 M [NBu4][B(C6F5)4]
Procedure: Electrochemical studies were carried out. The electrolyte solution used for these studies, namely dichloromethane with 0.05 M [NBu4][B(C6F5)4] as the supporting electrolyte, is known to provide an optimum medium for the electrochemical oxidation of compounds containing the MnCp(CO)3 (Cp=η^5-C5H5) backbone (Laws et al., J. Am. Chem. Soc. 2008, 130, 9859). The potentials given here are referred to the ferrocene/ferrocenium reference couple. The experiments were carried out in a controlled atmosphere which minimizes exposure to oxygen and water. We refer to two types of standard electrochemical techniques that are commonly described in books on electrochemistry: cyclic voltammetry and bulk electrolysis (Bard, A. J.; Faulkner, L. R. Electrochemical Methods, John Wiley & Sons, New York, 2001, second edition) The former is useful for the analytical and gross mechanistic aspects of the electron-transfer properties of a compound, whereas the latter is most often employed for the electro-synthetic function of making isolable quantities of electrochemical oxidation or reduction products.
Anodic oxidation of the three compounds was investigated. […]
Table of potentials (vs ferrocene/ferrocenium (FcH)) measured by cyclic voltammetry for oxidation of compounds 3, 4, and 5 in dichloromethane/0.05 M [NBu4][B(C6F5)4]. […]

[2] = test system: panel of human cancer cell lines; test: Cytotoxicity assay (MTS cell viability, 72 h); assay type: cell-based
Procedure: (§1) Materials and Methods. Cell lines and reagents. Human cancer cell lines ACHN (kidney adenocarcinoma), BxPC3 (pancreatic adenocarcinoma), DU145 (prostate carcinoma), HT29 (colorectal adenocarcinoma), Jurkat (T-cell lymphoma), LNCaP (androgen sensitive prostate adenocarcinoma), PC3 (androgen insensitive prostate adenocarcinoma), SB1A (melanoma), and T47D (breast infiltrating ductal carcinoma) were cultured RPMI 1640 (Mediatech, Inc., Manassas, Va.) supplemented with 10% fetal bovine serum, 1% penicillin/streptomycin/amphotericin B solution, 1 mM sodium pyruvate, 1% MEM non-essential amino acid solution, and 2 mM L-glutamine at 37° C. in a 5% CO2, humidified incubator. All supplements were purchased from HyClone™ (Logan, Utah). […] The resulting pH was measured to be 6.72±0.06 in the absence of cells. […]
(§2) Cytotoxicity assay. […] Viability was measured by the CellTiter 96 AQueous Non-Radioactive Cell Proliferation Assay (Promega, Madison, Wis.) according to manufacturer's instruction. Briefly, 20 μL of MTS/PMS reagent was added to each tissue culture well, and incubated at 37° C. for a minimum of 2 hours, or until the maximum absorbance at 490 nm on the plate (wells with highest cell numbers) reached a value greater than 0.6. Absorbance was measured on a Perkin-Elmer Victor X4 multi-label plate reader. […]

RWPE-1 = test: Cytotoxicity assay (MTS cell viability, 72 h) in normal prostate epithelial cells; assay type: cell-based, human; settings: normal pH
Procedure: as §1, §2

LC3-II = test: Western blotting for LC3 isoforms in SB1A cells; assay type: cell-based, human; settings: 24 h
Procedure: (§3) FIG. 10. Evidence of lysosomal accumulation and cytotoxicity obtained through autophagy blockade by Cymanquine. A, SB1A cells were treated with various concentrations of Cymanquine or CQ for 24 h prior to western blotting for LC3 isoforms 1 and 2 (LC3-I and II—see text), respectively. […] B, SB1A cells stably expressing EGFP-LC3 were treated with indicated concentrations of CQ and Cymanquine for 4 h prior to fluorescence microscopy evaluation of EGFP-LC3 sub-cellular deposition. C-E, SB1A were treated with various concentrations of Cymanquine or CQ for 24 h prior to simultaneous staining with NBD-PZ and propidium iodide and analysis by flow cytometry. C, Live cells, sorted based on absence of propidium iodide staining (left panel, pentagonal gate) were analyzed for NBD-PZ staining, indicative of lysosomal content. B,C, The dose-response of Cymanquine and CQ on B, percentage of live cells (negative for propidium iodide staining), and C, NBD-PZ median fluorescence intensity of live cells. […]
(§4) Experiments aimed at elucidating the mechanism of action of Cymanquine were conducted. […] Preliminary quantitation of Cymanquine and CQ from isolated lysosomes of cells treated with equimolar quantities of either drug have been encouraging, showing a 60-fold higher accumulation of Cymanquine compared to CQ, as measured by HPLC-MS/MS.

[3] = test system: EGFP-LC3 fusion protein in SB1A cells; test: Fluorescence microscopy of EGFP-LC3 sub-cellular distribution; assay type: cell-based, human; settings: SB1A stably expressing EGFP-LC3, 4 h
Procedure: as §3, §4

SB1A cells = test: Flow cytometry with NBD-PZ and propidium iodide staining; assay type: cell-based, human; settings: 24 h
Procedure: FIG. 10. […] C, Live cells, sorted based on absence of propidium iodide staining (left panel, pentagonal gate) were analyzed for NBD-PZ staining, indicative of lysosomal content. […] Data in B,C presented as mean+/−SEM (n=3). *P<0.05, **P<0.001 by student's t-test.
Experiments aimed at elucidating the mechanism of action of Cymanquine were conducted. […] It is known that the blockade of autophagy results in the accumulation of neutralized lysosomes and of proteins normally cleared by autophagic flux.

[4] = test system: isolated lysosomes of cells; test: Quantitation of drug from isolated lysosomes by HPLC-MS/MS; assay type: cell-based; settings: preliminary, cells treated with equimolar quantities of either drug
Procedure: Experiments aimed at elucidating the mechanism of action of Cymanquine were conducted. […] It is known that the blockade of autophagy results in the accumulation of neutralized lysosomes and of proteins normally cleared by autophagic flux. FIG. 10 presents data that support a mechanism of action for Cymanquine as a weak base lysosomotropic autophagy inhibitor. […] The lysosomotropic fluorophore, NBD-PZ, was employed in conjunction with propidium iodide (PI) to simultaneously measure lysosomal accumulation, neutralization, and cell viability by flow cytometry on CQ and Cym treated SB1A cells (FIG. 10C-E). […] Furthermore, at the highest concentration of Cymanquine tested, NBD-PZ staining is reduced, due to either lysosome loss, or neutralization, as emission of this fluorophore is highly dependent upon pH. Preliminary quantitation of Cymanquine and CQ from isolated lysosomes of cells treated with equimolar quantities of either drug have been encouraging, showing a 60-fold higher accumulation of Cymanquine compared to CQ, as measured by HPLC-MS/MS.

Molecule | anti-autophagic efficacy (autophagy) | Ep(1) ([1]; first oxidation, anodic peak potential, irreversible) [V vs FcH] | E1/2(2) or Ep(2) ([1]; second oxidation, given as Ep (irreversible)) [V vs FcH] | cytotoxicity compared to CQ ([2]; low-pH (PIPES-supplemented) media) | cytotoxicity compared to CQ ([2]; normal pH growth conditions, listed as CMQ) | relative sensitivity of RWPE-1 compared to transformed cell lines (RWPE-1) | cell death at the highest concentrations tested (LC3-II) | accumulation of autophagy marker LC3-II (LC3-II; western blot) | subcellular distribution of EGFP-LC3 [3] | NBD-PZ staining (SB1A cells; highest concentration tested) | cytotoxicity (percentage of live cells, propidium iodide) (SB1A cells; low micromolar exposures) | lysosome content (NBD-PZ staining of live cells) (SB1A cells; low micromolar exposures) | accumulation in lysosomes compared to CQ [4] [fold]
CCN(CC)CCCC(C)Nc1ccnc2cc(Cl)ccc12 (stereo not shown) [CQ, Chloroquine] | poor anti-autophagic efficacy | – | – | – | – | – | – | – | – | – | – | – | –
cymanquine [Compound 3] | – | 0.82 | 1.25 | more potent cytotoxicity than CQ | more potent cytotoxicity than CQ; also recorded: more potent single-agent cytotoxic properties than CQ | most resistant | extensive cell death | dose-responsive accumulation | punctate EGFP-LC3 emission patterns | reduced | significant cytotoxicity | marked accumulation of lysosomes | 60
